Experimental data taken from paper PMC12508063, “Chloroindazole based estrogen receptor β ligands with favorable pharmacokinetics promote functional remyelination and visual recovery” (Scientific Reports, 2025).
Several values for one entry are separate records, joined by “and”; a condition that tells them apart may be missing. Identical values can stand only once. Like-named read-outs stand apart in the source and are kept apart here.

Columns and labels:
[1] = tested on: EAE mice; assay: Electroretinogram (ERG) in EAE; type: in vivo, mouse; conditions: for ERG A-wave and B-wave amplitude: vs vehicle-treated mice
Experimental: (§1) Optical coherence tomography, electroretinograms and visual evoked potentials: OCT was acquired using the spectral domain‐OCT (R2200 840 nm HHP; Leica, Deerfield, IL) at peak EAE disease according to previously published methods[23],[28]. Each image was taken 3 times and averaged. Automatic segmentation of retinal layers was performed using Bioptigen Diver 3.0 software (Leica Microsystems, Deerfield, IL). ERG and VEPs were measured using the HMsERG200 ([…], Henderson, NV) as previously described[23],[28]. Animals were dark adapted for a minimum of 5 h prior to recording. During acquisition, animals were anesthetized with continuous 2% isoflurane. Traces were averaged and filtered for 60 Hz noise and a low-pass filter. MATLAB was used to adjust baselines and smoothed prior to measuring ERG and VEP amplitudes and latencies.
(§2) Electroretinograms and visual evoked potentials were measured using the HMsERG200 (OcuScience, Henderson, NV) as previously described (8, 9). Animals were dark adapted for a minimum of 5 hours prior to recording. During acquisition, animals were anesthetized with continuous 2% isoflurane. Traces were averaged and filtered for 60 Hz noise and a low-pass filter. MATLAB was used to adjust baselines and smoothed prior to measuring ERG and VEP amplitudes and latencies.

[2] = Stability in human plasma; type: in vitro ADME
[3] = biological target: CYP3A4 (Homo sapiens, UniProt P08684); assay: CYP inhibition (midazolam and testosterone substrates); conditions: test compounds at 10 μM; for CYP Inhibition Percentage CYP3A4-M: substrate Midazolam
CYP3A4, sequence (P08684 whole entry): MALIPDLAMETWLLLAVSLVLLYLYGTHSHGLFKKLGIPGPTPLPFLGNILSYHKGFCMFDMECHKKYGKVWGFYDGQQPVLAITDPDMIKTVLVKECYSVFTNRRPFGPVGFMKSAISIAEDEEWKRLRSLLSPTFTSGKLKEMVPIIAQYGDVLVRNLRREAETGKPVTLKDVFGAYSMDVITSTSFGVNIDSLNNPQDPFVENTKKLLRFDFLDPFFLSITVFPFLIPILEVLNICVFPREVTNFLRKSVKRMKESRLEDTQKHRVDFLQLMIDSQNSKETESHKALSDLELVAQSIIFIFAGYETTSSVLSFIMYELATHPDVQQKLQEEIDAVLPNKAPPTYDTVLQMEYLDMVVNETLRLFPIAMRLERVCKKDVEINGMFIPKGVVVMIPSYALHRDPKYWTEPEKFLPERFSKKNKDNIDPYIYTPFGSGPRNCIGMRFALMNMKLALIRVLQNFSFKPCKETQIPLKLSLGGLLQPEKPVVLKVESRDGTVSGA

[4] = tested on: EAE mice; assay: Rotarod motor performance in EAE; type: in vivo, mouse; conditions: 5 mg/kg SC
Experimental: EAE induction and treatment: EAE was induced in 8–10-week-old wild-type C57BL/6J mice using MOG₃₅-₅₅ peptide[11],[14],[23]–[25]. Mice were scored daily using a standard clinical scale (0–5) and tested for their ability to stay on a rotarod. […] At peak disease (18–22 days post-immunization), animals were grouped into EAE+Vehicle, EAE+K102, and EAE+K110.
Rotarod Motor Performance: Mice cages were moved to the behavioral room 1 hour prior to testing. Motor performance was assessed using the Rotarod apparatus (Med Associates, Inc., St. Albans, VT) as previously performed with modifications(5, 6). Briefly, mice were placed on the rotating horizontal rod set to a speed of 3 – 30 rpm for a maximum of 300 seconds. The amount of time the mouse was able to walk on the accelerating rod was recorded. Each mouse was tested in three trials separated by 15 minute intertrial intervals. The average of the three trials was reported as a single value for each mouse. Statistical analysis was performed in GraphPad Prism 10 software using Mann-Whitney test.

[5] = tested on: CPZ demyelinating model of MS; assay: Cuprizone (CPZ) diet demyelination/remyelination model, corpus callosum IHC; conditions: for CC1 + OLs compared to RM + V / CD45 immunoreactivity compared to 12wkDM / GFAP expression / myelin (MBP, PLP, and MOG staining) compared to RM + V: corpus callosum, 5 mg/kg/day, 3 wk
Source text: CPZ administration and treatment: Mice were fed a diet containing 0.2% bis(cyclohexanone)oxaldihydrazone (CPZ, Teklad Custom Diets, Madison, WI) for 12 weeks, as previously described[15],[27]. A subset of mice was perfused immediately following the 12-week CPZ regimen (12wkDM). […] These mice were perfused and their brains were processed for IHC.

[6] = tested on: primary mouse OPCs; assay: OL differentiation in primary mouse OPC culture (MBP, DAPI); type: cell-based; conditions: for MBP+ OLs vs vehicle-treated wells: 10 nM; for number of MBP+ cells vs vehicle: 10 nM and 100 nM, concentration-dependent
Source text: Mouse and Human primary cell cultures: Primary OPC/OL culture were isolated from the cortices of postnatal day 0–1 C57BL/6J mice of both sexes, using established protocols[11],[20],[21]. Mouse OPC and Neuronal Co-cultures: Primary neuronal cultures were established in Neurobasal medium with B27 and plated on poly-L-lysine-coated coverslips. After 12 days, OPCs were isolated, counted, and added to neuronal cultures and media was replaced with neuronal and proliferation media for 3 days, then switched to maturation media that maintained both neurons and OLs. Human iPSC-derived OPCs (Tempo’s iOligo™) were expanded, cryopreserved, and later plated on Matrigel-coated coverslips. After 3 days in growth medium, cells were treated for 3 weeks with T3 containing maturation medium. Differentiation into myelin-producing OLs was assessed using O4 (OL surface marker on pre-OLs) and myelin basic protein (MBP) immunohistochemistry. In all conditions compounds or vehicle were added to culture during differentiation for either 5 days (mouse) or 18 days (human).
Immunocytochemistry and Image Analysis of cell cultures: After treatment, cells were fixed and stained for MBP and DAPI. Coverslips were imaged using a confocal microscope at 10× and 40× objectives. Cell densities were quantified using ImageJ and normalized to control conditions. MBP-positive cells, their process extensions, and highly branched OLs were counted to assess differentiation. Co-culture images were analyzed for MBP and β3-tubulin colocalization using JACoP[22] in ImageJ, with results validated by manual quantification.
Primary OL Progenitor cells (OPC) and Neuronal Cultures: OPC and cortical neuronal cultures were prepared from the cortices of postnatal day P0-P1 C57BL/6J mice of both sexes, following established protocols (1, 2);(3). The single-cell suspension was divided into two tubes. One tube was treated with warm Neuronal Basal media, counted, and plated onto poly-L-lysine (PLL)-coated glass coverslips. The second tube was resuspended in glial growth medium, composed of DMEM-F12 supplemented with 10% fetal bovine serum, and placed in a PLL-coated culture flask for 8–10 days until confluent. Primary OPCs were then isolated by shaking and either co-cultured with primary neurons or plated onto poly-D-lysine-coated glass coverslips (three coverslips per condition, 2x10^6 cells per coverslip). The OPCs were allowed to attach for three days, followed by five days in differentiating media (DMEM-F12 with Sato media containing triiodothyronine and thyroxine) supplemented with various analogues and remyelinating compounds. For comparison, a negative control (vehicle, consisting of the media and ethanol mixture used to dissolve the analogues and remyelinating compounds) and a normal control (differentiating media alone) were included in the experiments.
Quantification of Mature OLs and Co-culture axon myelination: At the conclusion of the treatment period, cells were fixed and subjected to immunocytochemistry to evaluate myelin basic protein (MBP) expression, co-stained with the nuclear marker DAPI (shown in blue). […] Cell counting was performed using the ImageJ multipoint tool, and cell densities were calculated by dividing the counts by the image area (mm²). […]
To assess OL differentiation, the number of MBP-positive (MBP+) cells and process extensions exceeding the diameter of the cell body were quantified.

[7] = tested on: co-cultures of primary cortical neurons and OPCs; assay: Axon myelination in co-cultures of primary cortical neurons and OPCs; type: cell-based, mouse; conditions: K102, K110 10 nM; Clemastine, Bazedoxifene 500 nM; 5 days
Source text: Mouse and Human primary cell cultures: Primary OPC/OL culture were isolated from the cortices of postnatal day 0–1 C57BL/6J mice of both sexes, using established protocols[11],[20],[21]. Mouse OPC and Neuronal Co-cultures: Primary neuronal cultures were established in Neurobasal medium with B27 and plated on poly-L-lysine-coated coverslips. After 12 days, OPCs were isolated, counted, and added to neuronal cultures and media was replaced with neuronal and proliferation media for 3 days, then switched to maturation media that maintained both neurons and OLs. Human iPSC-derived OPCs (Tempo’s iOligo™) were expanded, cryopreserved, and later plated on Matrigel-coated coverslips. After 3 days in growth medium, cells were treated for 3 weeks with T3 containing maturation medium. Differentiation into myelin-producing OLs was assessed using O4 (OL surface marker on pre-OLs) and myelin basic protein (MBP) immunohistochemistry. […]
Immunocytochemistry and Image Analysis of cell cultures: After treatment, cells were fixed and stained for MBP and DAPI. […] Cell densities were quantified using ImageJ and normalized to control conditions. MBP-positive cells, their process extensions, and highly branched OLs were counted to assess differentiation. Co-culture images were analyzed for MBP and β3-tubulin colocalization using JACoP[22] in ImageJ, with results validated by manual quantification. […]

[8] = tested on: splenocytes from EAE mice; assay: Splenocyte cytokine/chemokine analysis ex vivo (MOG35-55 stimulation); type: in vivo, mouse; conditions: K102 5 or 30 mg/kg, K110 10 or 30 mg/kg; 40 dpi
Experimental: Splenocyte Isolation and Cytokine Analysis: Spleens were collected from mice prior to transcardial perfusion, and splenocytes were isolated, counted, and resuspended in RPMI medium. After 1 h incubation, cells were stimulated with 25 µg/mL MOG₃₅-₅₅, and supernatants were collected 48 h later. Cytokine and chemokine levels in the supernatants, including pro- and anti-inflammatory markers as well as chemokines were analyzed by The Cytokine Core (Indianapolis, IN).
In MS and EAE, peripherally activated immune cells release inflammatory cytokines and chemokines, triggering demyelination and axonal damage. To examine how different concentrations of K102 (5 mg/kg or 30 mg/kg) (Fig. 4A) and K110 (10 mg/kg or 30 mg/kg) (Fig. 4B) influence the peripheral immune response, splenocytes were isolated from EAE mice at 40 dpi. These splenocytes were then stimulated ex vivo with MOG35-55 and analyzed for cytokine and chemokine expression.
Splenocyte Isolation and Cytokine Analysis: Spleens were removed from mice prior to transcardial perfusion. After isolation, splenocytes were counted and resuspended in RPMI. Following incubation, splenocytes were stimulated with 25 µg/ml MOG35–55 and supernatants were collected 48 hours later. Levels of the following cytokines and chemokines present in culture supernatants were sent to The Cytokine Core (Indianapolis, IN); pro-inflammatory cytokines: IFNγ, Tumor necrosis factor (TNF)α, IL-1α, IL-1β, IL-3, IL-6, IL9, IL17, Vascular endothelial growth factor (VEGF), CCL5/RANTES and macrophage colony-stimulating factor (M-CSF); anti-inflammatory cytokines: IL-5 and IL-10; chemokines: CXCL10, and CXCL1 were determined.

[9] = biological target: T1, full length purified human ERα (Homo sapiens, UniProt P03372); assay: competitive ligand binding assay, tritiated estradiol as tracer
T1 construct: full length purified human ERα and ERβ
T1 sequence (P03372 whole entry): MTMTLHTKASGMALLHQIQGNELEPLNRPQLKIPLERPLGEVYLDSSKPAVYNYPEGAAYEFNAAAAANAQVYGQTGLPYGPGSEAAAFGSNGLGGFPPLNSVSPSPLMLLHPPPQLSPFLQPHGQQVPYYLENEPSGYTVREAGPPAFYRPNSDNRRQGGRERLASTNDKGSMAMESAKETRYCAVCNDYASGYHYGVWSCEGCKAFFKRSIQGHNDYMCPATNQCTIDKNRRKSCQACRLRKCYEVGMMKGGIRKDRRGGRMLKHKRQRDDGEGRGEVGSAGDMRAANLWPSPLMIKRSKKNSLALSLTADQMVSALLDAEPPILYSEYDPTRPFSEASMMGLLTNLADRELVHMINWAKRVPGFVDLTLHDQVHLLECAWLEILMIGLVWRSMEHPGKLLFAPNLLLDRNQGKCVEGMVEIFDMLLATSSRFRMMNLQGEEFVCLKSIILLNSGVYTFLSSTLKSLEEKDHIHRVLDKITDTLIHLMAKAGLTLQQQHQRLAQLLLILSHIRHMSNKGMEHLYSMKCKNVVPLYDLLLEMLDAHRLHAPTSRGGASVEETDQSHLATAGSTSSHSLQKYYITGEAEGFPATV

[10] = for Kp uu Brain Mean / Kp uu Uterus Mean: 40 mg/kg PO; for K p,uu,brain Cmax: single dose oral PK in mouse at 40 mg/kg
Experimental: Plasma samples were 100% plasma or 5-fold diluted plasma; brain homogenate samples were diluted 5-fold with buffer, while uterus homogenate samples were initially diluted 5-fold and then further diluted to 20-fold. Equilibrium dialysis was performed in a 96-well plate system with wells containing 80 µL of buffer and 80 µL of the sample on opposite sides of the membrane. After incubation at 37°C for 5 hours with shaking at 180 rpm, aliquots were collected from both sides of the membrane for further analysis.
For plasma samples, 50 µL of sample was mixed with 50 µL of phosphate buffer, followed by addition of 300 µL quenching solution containing internal standards and DMSO. For 5-fold diluted plasma samples, 35 µL of sample was mixed with 35 µL of blank buffer, followed by 280 µL quenching solution. For tissue homogenate samples, 50 µL samples were mixed with 50 µL of phosphate buffer, followed by 200 µL quenching solution. All samples were vortexed for 1 minute, and centrifuged at 4,000 rpm for 15 minutes, and the supernatant collected for LC-MS/MS analysis, which was performed using an API 5500 mass spectrometer with an ACQUITY UPLC BEH 1.7 μm C18 100 Å column (2.1 mm * 50 mm) and ACE Excel 5 C4 (2.1 * 50 mm) column. Mobile phases were 0.1% formic acid in water or 5 mM NH4OAc with 0.05% formic acid in water (A) and 0.1% formic acid in acetonitrile (B). Run times were 8 minutes for plasma samples and 5 minutes for other sample types. The mass spectrometer was operated in positive electrospray ionization mode.
Free fraction (fu) and recovery were calculated using specific equations for each sample type. For plasma samples, fu (%) was calculated as (Cbuffer / Cplasma) * 100%, and recovery (%) as ((Cplasma + Cbuffer) / T0) * 100%. For 5-fold diluted plasma samples, fu,20% (%) was calculated as (Cbuffer / Cplasma) * 100%, and fu,100% (%) as fu,20% / (5 - 4 * fu,20%) * 100%. Similar equations were used for uterus and brain samples, accounting for their respective dilution factors. These calculations allowed for the determination of the free fraction of the test compound in various tissue compartments and the assessment of recovery rates.

[11] = biological target: T2, full length purified human ERβ (Homo sapiens, UniProt Q92731); assay: competitive ligand binding assay, tritiated estradiol as tracer; conditions: for RBA β/α ratio: ERβ/ERα relative affinity ratio
T2 construct: full length purified human ERα and ERβ
T2 sequence (Q92731 whole entry): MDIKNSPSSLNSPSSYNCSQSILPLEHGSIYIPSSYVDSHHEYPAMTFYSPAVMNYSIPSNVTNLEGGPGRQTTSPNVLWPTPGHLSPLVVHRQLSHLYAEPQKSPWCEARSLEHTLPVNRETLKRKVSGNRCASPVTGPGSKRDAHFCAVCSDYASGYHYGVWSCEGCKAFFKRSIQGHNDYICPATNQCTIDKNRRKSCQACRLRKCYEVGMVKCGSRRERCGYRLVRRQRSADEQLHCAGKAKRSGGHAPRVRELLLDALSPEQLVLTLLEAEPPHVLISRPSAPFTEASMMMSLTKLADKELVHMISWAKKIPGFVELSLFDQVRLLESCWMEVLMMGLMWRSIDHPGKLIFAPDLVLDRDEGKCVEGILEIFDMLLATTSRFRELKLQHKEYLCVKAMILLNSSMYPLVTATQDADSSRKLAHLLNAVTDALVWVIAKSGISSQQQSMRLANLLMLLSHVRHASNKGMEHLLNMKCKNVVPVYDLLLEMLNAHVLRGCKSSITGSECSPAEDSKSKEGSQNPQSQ

[12] = tested on: EAE mice; assay: Visual evoked potential (VEP) in EAE; type: in vivo, mouse; conditions: vs vehicle-treated
Experimental: as §1, §2

[13] = Uterine weight and body weight in EAE mice; conditions: for Body weight / Uterine weight / Uterine weight/body weight ratio: EAE mice; for uterine weight relative to body weight: normal or EAE intact female mice
Source text: The animals from Hook EAE experiment Figure 3Bii were used. […] (S6ii) The weight of the uteri removed from mice relative to total body weight along with the raw uterine weight and body weight at the end of this experiment is plotted.

[14] = relative binding affinity, estradiol = 100

Cc1cc(O)ccc1-n1nc2ccc(O)cc2c1Cl [Compound K102, IndCl-o-Me]
ERG B-wave latency [1]: improved
ERG A-wave and B-wave amplitude [1]: significant increase
% Remaining at 6 hr in Human Plasma [2]: 89.39%
CYP Inhibition Percentage CYP3A4-M [3]: 50.95%
CYP Inhibition Percentage CYP3A4-T ([3]; substrate Testosterone, 10 µM): 77% and 76.99%
ability to remain on the rotarod [4]: non-significant improvement
RM/N (remyelination with cpd. vs. normal) ([5]; PO): 76%
RM/RM-V (remyelination with cpd. vs. spontaneous remyelination without cpd) ([5]; PO): 121%
RM/N (remyelination with cpd. vs. normal) ([5]; SC, 5 mg/kg): 94%
RM/RM-V (remyelination with cpd. vs. spontaneous remyelination without cpd) ([5]; SC, 5 mg/kg): 149%
CC1 + OLs compared to RM + V [5]: further increase
CD45 immunoreactivity compared to 12wkDM [5]: small but significant decrease
GFAP expression [5]: remained unchanged
myelin (MBP, PLP, and MOG staining) compared to RM + V [5]: significant increase
MBP+ OLs vs vehicle-treated wells [6]: significant increase
number of MBP+ cells vs vehicle [6]: significantly increased
OL processes wrapping axons [7]: significant increase
CXCL1 production [8]: did not affect
CXCL10 levels compared to vehicle [8]: reduced
certain anti-inflammatory cytokines compared to vehicle [8]: significantly lower
pro-inflammatory cytokine levels compared to vehicle [8]: reduced
RBA ERα [9]: 0.37
Kp uu Brain Mean ([10]; 0.5 hr): 0.581
Kp uu Uterus Mean ([10]; 0.5 hr): 0.269
Kp uu Brain Mean ([10]; 2.0 hr): 0.333
Kp uu Uterus Mean ([10]; 2.0 hr): 0.380
Kp uu Brain Mean ([10]; 4.0 hr): 0.629
Kp uu Uterus Mean ([10]; 4.0 hr): 8.681
Kp uu Brain Mean ([10]; 8.0 hr): 0.325
Kp uu Uterus Mean ([10]; 8.0 hr): 3.086
K p,uu,brain Cmax [10]: 0.63
RBA ERβ [11]: 24.0
RBA β/α ratio [11]: 65
VEP P1 (or N2) amplitude [12]: significant increase
VEP P1 latency [12]: reduction
Body weight ([13]; group average): 20.124
Uterine weight ([13]; group average): 0.055
Uterine weight/body weight ratio ([13]; group average): 0.275
Body weight ([13]; individual animals): 19.160 and 19.460 and 20.910 and 21.110 and 19.980
Uterine weight ([13]; individual animals): 0.0650 and 0.0330 and 0.0810 and 0.0490
Uterine weight/body weight ratio ([13]; individual animals): 0.3392 and 0.1696 and 0.3874 and 0.2321 and 0.2452
uterine weight relative to body weight [13]: no increase

Oc1ccc(-n2nc3ccc(O)cc3c2Cl)c(O)c1 [Compound K110, IndCl-o-OH]
ERG B-wave latency [1]: improved
ERG A-wave and B-wave amplitude [1]: significant increase
% Remaining at 6 hr in Human Plasma [2]: 105.99%
CYP Inhibition Percentage CYP3A4-M [3]: 13.95%
ability to remain on the rotarod [4]: non-significant improvement
RM/N (remyelination with cpd. vs. normal) ([5]; PO): 100%
RM/RM-V (remyelination with cpd. vs. spontaneous remyelination without cpd) ([5]; PO): 127%
RM/N (remyelination with cpd. vs. normal) ([5]; SC, 5 mg/kg): 84%
RM/RM-V (remyelination with cpd. vs. spontaneous remyelination without cpd) ([5]; SC, 5 mg/kg): 133%
CC1 + OLs compared to RM + V [5]: further increase
CD45 immunoreactivity compared to 12wkDM [5]: small but significant decrease
GFAP expression [5]: remained unchanged
myelin (MBP, PLP, and MOG staining) compared to RM + V [5]: significant increase
MBP+ OLs vs vehicle-treated wells [6]: significant increase
number of MBP+ cells vs vehicle [6]: significantly increased
OL processes wrapping axons [7]: significant increase
CXCL1 production [8]: did not affect
CXCL10 levels compared to vehicle [8]: reduced
certain anti-inflammatory cytokines compared to vehicle [8]: significantly lower
pro-inflammatory cytokine levels compared to vehicle [8]: reduced
RBA ERα [9, 14]: 0.09
Kp uu Brain Mean ([10]; 0.5 hr): 0.232
Kp uu Uterus Mean ([10]; 0.5 hr): 0.516
Kp uu Brain Mean ([10]; 2.0 hr): 0.802
Kp uu Uterus Mean ([10]; 2.0 hr): 10.651
Kp uu Brain Mean ([10]; 4.0 hr): 0.280
Kp uu Uterus Mean ([10]; 4.0 hr): 45.849
Kp uu Brain Mean ([10]; 8.0 hr): 0.294
Kp uu Uterus Mean ([10]; 8.0 hr): 6.280
K p,uu,brain Cmax ([10]; 40 mg/kg): 0.8
RBA β/α ratio [11]: 48
RBA ERβ [11, 14]: 4.35
VEP P1 (or N2) amplitude [12]: did not affect
VEP P1 latency [12]: did reduce
Body weight ([13]; group average): 15.27
Uterine weight ([13]; group average): 0.04
Uterine weight/body weight ratio ([13]; group average): 0.26
Body weight ([13]; individual animals): 14.58 and 15.48 and 15.50 and 14.68 and 16.10
Uterine weight ([13]; individual animals): 0.044 and 0.027 and 0.034 and 0.056
Uterine weight/body weight ratio ([13]; individual animals): 0.3018 and 0.1744 and 0.2194 and 0.3815 and 0.2112
uterine weight relative to body weight [13]: no increase
